Experiments:
Format in all cases: cell-based
wild type K-Ras = molecular target: T1, wild type K-Ras (Homo sapiens, UniProt P01116); test: G-LISA Ras activation, 293H cells transfected with Ras wild-type, EGF stimulated; settings: compound 1 hour, then 100 ng/ml EGF 2 minutes
T1 construct: expressed in transfected cells; host or cells: 293H cells
Method: 293H cells were seeded in 6-wells at 0.6×10^6 cells per well and transfected next day with 5 μg of Ras wild-type, or G12C, G12D or G12V mutant DNA plasmid vector using transfection reagent Lipofectamine 3000. Next day cells were treated with 3.125-25 μM of Ras compounds for 1 hour. Wild-type transfected cells were subsequently treated with 100 ng/ml EGF for 2 minutes. Cells were washed once in ice-cold PBS, lysed in complete lysis buffer on ice, and processed by G-LISA according to Cytoskeleton protocol.

[1] = tested on: Ishikawa (K-Ras wild type cell line); test: Viability assay (CellTiterBlue, 72 hr) Ishikawa; settings: Homo sapiens, GI50, CellTiterBlue, Ishikawa K-Ras wild-type
How it was run: (§1)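 GI50 calculation uses a window set by DMSO-treated wells (100% viability) and 100 uM tamoxifen (0%). Cells (1000/well) sit 18 hr at 37 °C, receive compound for 72 hr in 0.5% DMSO, then get CellTiterBlue for 3 hr before reading at Ex550/Em590.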

[2] = tested on: U87-MG (K-Ras wild type cell line); test: Viability assay (CellTiterBlue, 72 hr) U87-MG; settings: Homo sapiens, U-87 MG, GI50, CellTiterBlue, U87-MG K-Ras wild-type
How it was run: as §1

Panc1-G12D = test: Viability assay (CellTiterBlue, 72 hr) Panc1; settings: Homo sapiens, PANC-1, GI50, CellTiterBlue, Panc1 K-Ras G12D, read-out: 72 hr Cell Viability Panc1 (G12D)
How it was run: as §1

Panc10.05-G12D = test: Viability assay (CellTiterBlue, 72 hr) Panc10.05; settings: Homo sapiens, Panc1005, GI50, CellTiterBlue, Panc10.05 K-Ras G12D, read-out: 72 hr Cell Viability Panc10.05 (G12D)
How it was run: as §1

HCT116-G31D = test: Viability assay (CellTiterBlue, 72 hr) HCT116; settings: Homo sapiens, HCT-116, GI50, CellTiterBlue, HCT116 K-Ras G13D, read-out: 72 hr Cell Viability HCT116 (G13D)
How it was run: as §1

[3] = tested on: phospho-ERK in Panc1 (G12D); test: In-Cell Western phospho-ERK, Panc1; settings: Homo sapiens, PANC-1, 1 h; Panc1, one hour treatment; read-out: In-Cell Western Panc1 (G12D) Erk (P)
Method: (§2) In-cell phosphorylation assays for Erk and Akt were performed on several of the compounds and exemplary results are shown in Table 3 below using HCC827 and A375 cell lines for wild type K-Ras and Panc1 and Panc10.05 cell lines for G12D K-Ras mutants. Results are expressed in μM and corresponding structures are shown in FIGS. 2A-2G and Examples 1-152, above.
(§3) Cells are seeded in complete medium into black sided, clear-bottom 384-well microplates at 3000 cells/[…]/well. Plates are returned to 37° C. CO2 incubator for 18 hr. Drug is made as 200× in DMSO and diluted into medium to 10×. To each well is added 4 ul 10× test article or controls, and plates are returned to the incubator. Final assay DMSO concentration is 0.5%. After one hour, cells are fixed in formaldehyde, rinsed & permeabilized with triton X-100, and blocked with BSA/Goat serum blocking solution. Primary phospho-Akt and phospho-ERK antibodies are added and plates are incubated overnight at 4° C. Plates are rinsed with Tween-20 wash buffer and secondary antibody (Goat anti-rabbit, Thermofisher) is added. After 2 hours, plates are rinsed in Tween-20 wash buffer, and then PBS. Plates are imaged on the Celigo (Nexcelom) and cellular fluorescence is quantitated. Full inhibition of phospho-Akt is achieved with 1 uM BEZ235 (Sellekchem), while full inhibition of phospho-ERK is achieved with 1 uM MEK Inhibitor II Calbiochem). EC50 values are calculated using Graphpad Prism.

[4] = tested on: phospho-Akt in Panc1 (G12D); test: In-Cell Western phospho-Akt, Panc1; settings: Homo sapiens, PANC-1, 1 h; Panc1, one hour treatment; read-out: In-Cell Western Panc1 (G12D) Akt (P)
Method: as §2, §3

[5] = tested on: phospho-ERK in Panc10.05 (G12D); test: In-Cell Western phospho-ERK, Panc10.05; settings: Homo sapiens, Panc1005, 1 h; Panc10.05, one hour treatment; read-out: In-Cell Western Panc10.05 (G12D) Erk (P)
Method: as §2, §3

[6] = tested on: phospho-Akt in Panc10.05 (G12D); test: In-Cell Western phospho-Akt, Panc10.05; settings: Homo sapiens, Panc1005, 1 h; Panc10.05, one hour treatment; read-out: In-Cell Western Panc10.05 (G12D) Akt (P)
Method: as §2, §3

K-Ras G12D = molecular target: T2, K-Ras G12D (Homo sapiens, UniProt P01116, G12D); test: G-LISA Ras activation, 293H cells transfected with G12D mutant; settings: compound 1 hour
T2 construct: expressed in transfected cells; host or cells: 293H cells
How it was run: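 Active Ras was quantified by G-LISA in lysates of 293H cells made the day after transfection with wild-type, G12D or G12V Ras plasmid (5 μg). Compounds were applied at 3.125-25 μM for 1 h; only the wild-type cells got a 2-min 100 ng/ml EGF pulse before lysis.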

[7] = tested on: HCC827 (K-Ras wild type cell line); test: Viability assay (CellTiterBlue, 72 hr) HCC827; settings: Homo sapiens, GI50, CellTiterBlue, HCC827 K-Ras wild-type
How it was run: as §1

[8] = tested on: A375 (K-Ras wild type cell line); test: Viability assay (CellTiterBlue, 72 hr) A375; settings: Homo sapiens, A-375, GI50, CellTiterBlue
Method: Viability assays were performed on exemplary compounds and Table 2 below lists exemplary results for selected compounds tested on K-Ras wild type cell lines (Ishikawa, U87-MG, HCC827, and A375) and various K-Ras mutant cell lines (Panc1-G12D; Panc10.05-G12D; HCT116-G31D). Results are expressed in μM and corresponding structures are shown in FIGS. 2A-2G and Examples 1-152, above.
Cells are counted and seeded at 1000 cells/36 ul medium/well into 384-well microplates. Cells are returned to 37° C. CO2 incubator for 18 hr. Drug is made as 200× in DMSO and diluted into medium to 10×. To each well is added 4 ul 10× drug, and plates are returned to the incubator. Final assay DMSO concentration is 0.5%. After 72 hr, 8 ul CellTiterBlue (Promega) is added to each well. After 3 hr, fluorescence (Ex550/Em590) is determined on the Victor Plate Reader (Perkin Elmer). Assay range is determined by DMSO control (100% viability) and 100 uM tamoxifen (0% viability). GI50 values are calculated using Graphpad Prism.

[9] = tested on: phospho-ERK in HCC827 (Wild-type); test: In-Cell Western phospho-ERK, HCC827; settings: Homo sapiens, 1 h; HCC827, one hour treatment; read-out: In-Cell Western HCC827 (Wild-type) Erk (P)
Method: as §2, §3

[10] = tested on: phospho-ERK in A375 (Wild-type); test: In-Cell Western phospho-ERK, A375; settings: Homo sapiens, A-375, 1 h; A375, one hour treatment; read-out: In-Cell Western A375 (Wild-type) Erk (P)
Method: as §2, §3

[11] = tested on: phospho-Akt in A375 (Wild-type); test: In-Cell Western phospho-Akt, A375; settings: Homo sapiens, A-375, 1 h; A375, one hour treatment; read-out: In-Cell Western A375 (Wild-type) Akt (P)
Method: as §2, §3

T1 sequence (P01116 whole entry): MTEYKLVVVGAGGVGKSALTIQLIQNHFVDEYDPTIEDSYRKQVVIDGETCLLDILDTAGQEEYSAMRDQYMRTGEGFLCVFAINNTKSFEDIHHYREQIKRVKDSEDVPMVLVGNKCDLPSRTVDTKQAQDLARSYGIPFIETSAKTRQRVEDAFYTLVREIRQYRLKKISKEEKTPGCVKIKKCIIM
T2 sequence (P01116 whole entry G12D): as the sequence (P01116 whole entry) above, with G12D counted along it

| Compound | IC50 (wild type K-Ras) [µM] | IC50 [1] [µM] | IC50 [2] [µM] | IC50 (Panc1-G12D) [µM] | IC50 (Panc10.05-G12D) [µM] | IC50 (HCT116-G31D) [µM] | EC50 [3] [µM] | EC50 [4] [µM] | EC50 [5] [µM] | EC50 [6] [µM] | IC50 (K-Ras G12D) [µM] | IC50 [7] [µM] | IC50 [8] [µM] | EC50 [9] [µM] | EC50 [10] [µM] | EC50 [11] [µM] |
| --- | --- | --- | --- | --- | --- | --- | --- | --- | --- | --- | --- | --- | --- | --- | --- | --- |
| Cc1nc(C(C)C)sc1C(=O)Nc1nc(-c2ccc3c(c2)CCC(=O)N3)cs1 [Compound 3, 2-isopropyl-4-methyl-N-(4-(2-oxo-1,2,3,4-tetrahydroquinolin-6-yl)thiazol-2-yl)thiazole-5-carboxamide] | 12 | > 25 | 12 | 5.5 | 14 | 18 | 2 | 9 | 3 | 8 |  |  |  |  |  |  |
| CCc1nc(C)c(C(=O)Nc2nc(-c3ccc4c(c3)CCC(=O)N4)cs2)o1 [Compound 5, 2-ethyl-4-methyl-N-(4-(2-oxo-1,2,3,4-tetrahydroquinolin-6-yl)thiazol-2-yl)oxazole-5-carboxamide] | 14.1 | > 25 | > 25 | 6 | 19 | 22 |  | 13 |  | 8 | 10.2 |  |  |  |  |  |
| Cc1nc(C(=O)Nc2nc(-c3ccc4c(c3)CCC(=O)N4)cs2)c(C)s1 [Compound 20, 2,5-dimethyl-N-(4-(2-oxo-1,2,3,4-tetrahydroquinolin-6-yl)thiazol-2-yl)thiazole-4-carboxamide] |  | > 25 | > 25 | > 25 | > 25 | > 25 | > 25 | > 25 | > 25 | > 25 |  | > 25 | > 25 | > 25 | > 25 | > 25 |
| Cc1nn(C)cc1C(=O)Nc1nc(-c2ccc3c(c2)CCC(=O)N3)cs1 [Compound 21, 1,3-dimethyl-N-(4-(2-oxo-1,2,3,4-tetrahydroquinolin-6-yl)thiazol-2-yl)-1H-pyrazole-4-carboxamide] | 17.1 | 5 |  | 2 | 0.797 | 10 | > 25 | 12 | > 25 | 8 | 3.8 | 6 |  |  |  |  |
| Cc1cc(C(=O)Nc2nc(-c3ccc4c(c3)CCC(=O)N4)cs2)n(C)n1 [Compound 22, 1,3-dimethyl-N-(4-(2-oxo-1,2,3,4-tetrahydroquinolin-6-yl)thiazol-2-yl)-1H-pyrazole-5-carboxamide] | 12.6 | 4 |  | 1.3 | 0.734 | > 25 | > 25 | > 25 | > 25 | 27 | 4.6 | 22 |  |  |  |  |
| O=C1CCc2cc(-c3csc(NC(=O)c4ccnn4-c4ccccc4)n3)ccc2N1 [Compound 47, N-(4-(2-oxo-1,2,3,4-tetrahydroquinolin-6-yl)thiazol-2-yl)-1-phenyl-1H-pyrazole-5-carboxamide] |  | > 25 | > 25 | > 25 | > 25 | > 25 | > 25 | > 25 | > 25 | > 25 |  | > 25 | > 25 | > 25 | > 25 | > 25 |
| Cn1nccc1C(=O)Nc1nc(-c2ccc3c(c2)CCC(=O)N3)cs1 [Compound 51, 1-methyl-N-(4-(2-oxo-1,2,3,4-tetrahydroquinolin-6-yl)thiazol-2-yl)-1H-pyrazole-5-carboxamide] |  | > 25 | > 25 | > 25 | > 25 | > 25 | > 25 | > 25 | 25 |  | 21.5 | > 25 | > 25 | > 25 | > 25 | > 25 |
| Cc1nc(C)c(C(=O)Nc2nc(-c3ccc4c(c3)CCC(=O)N4CC3CCCCC3)cs2)o1 [Compound 62, N-(4-(1-(cyclohexylmethyl)-2-oxo-1,2,3,4-tetrahydroquinolin-6-yl)thiazol-2-yl)-2,4-dimethyloxazole-5-carboxamide] | > 25 | 3 | 3 | 5 | 2 | 4 | 2 | 6 | 6 |  | 21.7 |  |  |  |  |  |
| Cc1nc(CNC(=O)OC(C)(C)C)sc1C(=O)Nc1nc(-c2ccc3c(c2)CCC(=O)N3)cs1 [Compound 143, tert-butyl ((4-methyl-5-((4-(2-oxo-1,2,3,4-tetrahydroquinolin-6-yl)thiazol-2-yl)carbamoyl)thiazol-2-yl)methyl)carbamate] | 19 | > 25 | 9 | 7 | 4 | > 25 | 8 | 14 | 8 | 12 |  |  |  |  |  |  |
| Cc1nc(C2CCCC2)sc1C(=O)Nc1nc(-c2ccc3c(c2)CCC(=O)N3)cs1 [Compound 145, 2-cyclopentyl-4-methyl-N-(4-(2-oxo-1,2,3,4-tetrahydroquinolin-6-yl)thiazol-2-yl)thiazole-5-carboxamide] | > 25 | > 25 | 16 | 11 | 7 | > 25 | 5 | 18 | 7 | 17 | 24 |  |  |  |  |  |
